The supplement of paper PMC10627819

Key:
[1] = tested on: S. aureus DSM 20231; experiment: Bliss interaction score (quartile over a dose matrix) (fitness difference); higher = more antagonism (negative = synergy)
Summary of the method: (§1)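 The Bliss score is observed fitness minus expected fitness, where the expected value is the product of single-drug fitness values inferred from combination data. Fitness is OD595 at entry into stationary phase normalised to the plate's robust no-drug mean and capped at 1. Scores are reported as quartiles spanning technical, biological and donor/recipient replicates.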

[2] = tested on: S. aureus Newman; experiment: as above
Summary of the method: as §1

[3] = tested on: B. subtilis 168; experiment: as above
Summary of the method: as §1

[4] = tested on: S. pneumoniae D39V; experiment: as above
Summary of the method: as §1

[5] = tested on: S. pneumoniae D39V; experiment: fitness (endpoint OD595 vs no drug) (fraction); higher = more growth
Summary of the method: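 Each well of a 384-well plate received 30 µl of culture at OD595 0.01, or 55 µl for S. pneumoniae. TSB, LB Lennox or CY served as media at 37 °C. OD595 was taken every 30 min for 14 h and corrected by subtracting the first reading. Fitness is the optical density at stationary-phase entry divided by the robust mean of no-drug controls, capped at 1.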
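Wherever Bliss interaction score (quartile over a dose matrix) is given: first quartile when negative (synergy) and third quartile when positive (antagonism).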

O=C1CN(/N=C/c2ccc([N+](=O)[O-])o2)C(=O)N1 [Nitrofurantoin] + CN(C)c1cc(NC(=O)CNC(C)(C)C)c(O)c2c1C[C@H]1C[C@H]3[C@H](N(C)C)C(O)=C(C(N)=O)C(=O)[C@@]3(O)C(O)=C1C2=O [Tigecycline]
Conditions	Bliss interaction score
[1]	0.0547
[2]	0.0708
[3]	0.178
[4]	0.0879

fitness, [5]
Conditions	first compound 1.285 µg/mL	first compound 2 µg/mL	first compound 2.57 µg/mL	first compound 4 µg/mL	first compound 8 µg/mL
partner 0.65 µg/mL	0.939	0.96	0.932	0.971	0.921
partner 1.3 µg/mL	0.957	0.958	0.957	0.941	0.881
partner 2.6 µg/mL	0.949	0.919	0.936	0.937	0.9

[5], first compound 5.14 µg/mL, one replicate
Conditions	fitness
partner 0.65 µg/mL	0.922
partner 1.3 µg/mL	0.92
partner 2.6 µg/mL	0.894

O=C1CN(/N=C/c2ccc([N+](=O)[O-])o2)C(=O)N1 [Nitrofurantoin] + CN(N=O)C(=O)N[C@@H](C=O)[C@@H](O)[C@H](O)[C@H](O)CO [Streptozotocin]
Conditions	Bliss interaction score
[1]	-0.034
[2]	0.0906
[3]	0.0585
[4]	0.0714

fitness, [5]
Conditions	partner 1.2 µg/mL	partner 2.4 µg/mL	partner 4.8 µg/mL
first compound 1.285 µg/mL	0.928	0.94	0.939
first compound 2.57 µg/mL	0.939	0.952	0.957

fitness, [5], one replicate
Conditions	first compound 2 µg/mL	first compound 4 µg/mL	first compound 5.14 µg/mL	first compound 8 µg/mL
partner 1.2 µg/mL	0.954	0.959	0.86	0.818
partner 2.4 µg/mL	0.961	≥ 1	0.919	0.842
partner 4.8 µg/mL	≥ 1	≥ 1	0.871	≥ 1

O=C1CN(/N=C/c2ccc([N+](=O)[O-])o2)C(=O)N1 [Nitrofurantoin] + CN[C@@H]1[C@H](O)[C@H](NC)[C@H]2O[C@@]3(O)C(=O)C[C@@H](C)O[C@H]3O[C@@H]2[C@H]1O [Spectinomycin]
Conditions	Bliss interaction score
[1]	-0.0743
[2]	-0.0511
[3]	-0.0552
[4]	0.0652

fitness, [5]
Conditions	partner 4 µg/mL	partner 8 µg/mL	partner 16 µg/mL
first compound 1.285 µg/mL	0.96	0.889	0.829
first compound 2.57 µg/mL	0.935	0.917	0.829

fitness, [5], one replicate
Conditions	first compound 2 µg/mL	first compound 4 µg/mL	first compound 5.14 µg/mL	first compound 8 µg/mL
partner 4 µg/mL	0.966	0.948	0.859	0.895
partner 8 µg/mL	0.892	0.864	0.865	0.879
partner 16 µg/mL	–	–	0.793	–

O=C1CN(/N=C/c2ccc([N+](=O)[O-])o2)C(=O)N1 [Nitrofurantoin] + CN[C@@H]1[C@H](O[C@H]2[C@H](O[C@H]3[C@H](O)[C@@H](O)[C@H](N=C(N)N)[C@@H](O)[C@@H]3N=C(N)N)O[C@@H](C)[C@]2(O)C=O)O[C@@H](CO)[C@H](O)[C@H]1O [Streptomycin]
Conditions	Bliss interaction score
[1]	-0.0532
[2]	-0.0496
[3]	-0.0807
[4]	0.0583

fitness, [5]
Conditions	first compound 1.285 µg/mL	first compound 2 µg/mL	first compound 2.57 µg/mL	first compound 4 µg/mL	first compound 8 µg/mL
partner 2 µg/mL	0.956	–	0.938	–	–
partner 4 µg/mL	0.953	0.956	0.921	0.936	0.768
partner 8 µg/mL	0.927	0.884	0.918	0.887	0.743

fitness, [5], one replicate
Conditions	first compound 2 µg/mL	first compound 4 µg/mL	first compound 5.14 µg/mL	first compound 8 µg/mL
partner 2 µg/mL	0.965	0.948	0.86	0.76
partner 4 µg/mL	–	–	0.8	–
partner 8 µg/mL	–	–	0.809	–
partner 16 µg/mL	0.743	0.753	–	0.585

O=C1CN(/N=C/c2ccc([N+](=O)[O-])o2)C(=O)N1 [Nitrofurantoin] + CN[C@H](CC(C)C)C(=O)N[C@H]1C(=O)N[C@@H](CC(N)=O)C(=O)N[C@H]2C(=O)N[C@H]3C(=O)N[C@H](C(=O)N[C@H](C(=O)O)c4cc(O)cc(O)c4-c4cc3ccc4O)[C@H](O)c3ccc(c(Cl)c3)Oc3cc2cc(c3O[C@@H]2O[C@H](CO)[C@@H](O)[C@H](O)[C@H]2O[C@H]2C[C@](C)(N)[C@H](O)[C@H](C)O2)Oc2ccc(cc2Cl)[C@H]1O [Vancomycin]
Conditions	Bliss interaction score
[1]	0.0253
[2]	0.0534
[3]	0.0308
[4]	0.142

fitness, [5]
Conditions	first compound 1.285 µg/mL	first compound 2 µg/mL	first compound 2.57 µg/mL	first compound 4 µg/mL	first compound 8 µg/mL
partner 0.03125 µg/mL	–	0.926	–	0.959	0.892
partner 0.0625 µg/mL	–	0.882	–	0.959	0.894
partner 0.125 µg/mL	0.969	0.748	0.973	0.851	–
partner 0.25 µg/mL	0.611	–	0.653	–	–
partner 0.5 µg/mL	0.0954	–	0.0768	–	–

[5], first compound 5.14 µg/mL, one replicate
Conditions	fitness
partner 0.125 µg/mL	0.965
partner 0.25 µg/mL	0.446
partner 0.5 µg/mL	0.118

O=C1CN(/N=C/c2ccc([N+](=O)[O-])o2)C(=O)N1 [Nitrofurantoin] + CO[C@H]1/C=C/O[C@@]2(C)Oc3c(C)c(O)c4c(O)c(c(/C=N/N5CCN(C)CC5)c(O)c4c3C2=O)NC(=O)/C(C)=C\C=C\[C@H](C)[C@H](O)[C@@H](C)[C@@H](O)[C@@H](C)[C@H](OC(C)=O)[C@@H]1C [Rifampicin]
Conditions	Bliss interaction score
[1]	-0.0228
[2]	-0.0316
[3]	-0.0448
[4]	-0.117

fitness, [5]
Conditions	first compound 1.285 µg/mL	first compound 2 µg/mL	first compound 2.57 µg/mL	first compound 4 µg/mL	first compound 8 µg/mL
partner 0.05 µg/mL	0.825	0.789	0.798	0.781	0.668
partner 0.1 µg/mL	0.372	–	0.353	–	0.351
partner 0.2 µg/mL	0.129	–	0.166	–	–

fitness, [5], one replicate
Conditions	first compound 2 µg/mL	first compound 4 µg/mL	first compound 5.14 µg/mL	first compound 8 µg/mL
partner 0.025 µg/mL	0.873	0.85	–	0.782
partner 0.05 µg/mL	–	–	0.806	–
partner 0.1 µg/mL	–	–	0.369	–
partner 0.2 µg/mL	0	0	0.171	0

O=C1CN(/N=C/c2ccc([N+](=O)[O-])o2)C(=O)N1 [Nitrofurantoin] + COc1ccc(C[C@H](N)C(=O)N[C@H]2[C@@H](O)[C@H](n3cnc4c(N(C)C)ncnc43)O[C@@H]2CO)cc1 [Puromycin]
Conditions	Bliss interaction score
[1]	0.0289
[2]	0.098
[3]	0.1
[4]	-0.135

fitness, [5]
Conditions	partner 1 µg/mL	partner 2 µg/mL	partner 4 µg/mL
first compound 1.285 µg/mL	0.989	0.966	0.808
first compound 2.57 µg/mL	0.947	0.901	0.742

fitness, [5], one replicate
Conditions	first compound 2 µg/mL	first compound 4 µg/mL	first compound 5.14 µg/mL	first compound 8 µg/mL
partner 1 µg/mL	0.901	0.899	0.905	0.652
partner 2 µg/mL	0.821	0.915	0.88	0.711
partner 4 µg/mL	0.757	0.767	0.592	0.38

O=C1CN(/N=C/c2ccc([N+](=O)[O-])o2)C(=O)N1 [Nitrofurantoin] + C[n+]1ccc(-c2cc[n+](C)cc2)cc1 [Paraquat]
Conditions	Bliss interaction score
[1]	0.0244
[2]	0.0529
[3]	0.0514
[4]	0.0462

fitness, [5]
Conditions	partner 1.5 µg/mL	partner 3 µg/mL	partner 6 µg/mL
first compound 1.285 µg/mL	0.949	0.959	0.941
first compound 2.57 µg/mL	0.961	0.953	0.945

fitness, [5], one replicate
Conditions	first compound 2 µg/mL	first compound 4 µg/mL	first compound 5.14 µg/mL	first compound 8 µg/mL
partner 1.5 µg/mL	0.988	0.983	0.909	0.859
partner 3 µg/mL	0.965	0.968	0.927	0.871
partner 6 µg/mL	0.981	≥ 1	0.894	0.909

O=C1CN(/N=C/c2ccc([N+](=O)[O-])o2)C(=O)N1 [Nitrofurantoin] + Cc1cc(NS(=O)(=O)c2ccc(N)cc2)no1 [Sulfamethoxazol]
Conditions	Bliss interaction score
[1]	-0.0311
[2]	0.0591
[3]	0.0955
[4]	0.049

fitness, [5]
Conditions	partner 1 µg/mL	partner 2 µg/mL	partner 4 µg/mL
first compound 1.285 µg/mL	0.952	0.957	0.91
first compound 2.57 µg/mL	0.942	0.948	0.944

fitness, [5], one replicate
Conditions	first compound 2 µg/mL	first compound 4 µg/mL	first compound 5.14 µg/mL	first compound 8 µg/mL
partner 1 µg/mL	0.937	0.944	0.92	0.805
partner 2 µg/mL	0.929	0.934	0.929	0.833
partner 4 µg/mL	0.842	0.859	0.927	0.768

O=C1CN(/N=C/c2ccc([N+](=O)[O-])o2)C(=O)N1 [Nitrofurantoin] + Cc1onc(-c2ccccc2)c1C(=O)N[C@@H]1C(=O)N2[C@@H]1SC(C)(C)[C@@H]2C(=O)O [Oxacillin]
Conditions	Bliss interaction score
[1]	-0.0421
[2]	0.0474
[3]	0.0329
[4]	0.162

fitness, [5]
Conditions	first compound 1.285 µg/mL	first compound 2 µg/mL	first compound 2.57 µg/mL	first compound 4 µg/mL	first compound 8 µg/mL
partner 0.01 µg/mL	0.955	0.928	0.958	0.932	0.802
partner 0.02 µg/mL	0.959	0.873	0.944	0.864	0.798
partner 0.04 µg/mL	0.761	0.475	0.754	0.531	0.53

[5], first compound 5.14 µg/mL, one replicate
Conditions	fitness
partner 0.01 µg/mL	0.955
partner 0.02 µg/mL	0.967
partner 0.04 µg/mL	0.795

O=C1CN(/N=C/c2ccc([N+](=O)[O-])o2)C(=O)N1 [Nitrofurantoin] + Cn1nnc(-c2ccc(-c3ccc(N4C[C@H](CO)OC4=O)cc3F)cn2)n1 [Tedizolid]
Conditions	Bliss interaction score
[1]	-0.0543
[2]	-0.0562
[3]	-0.0546
[4]	-0.141

fitness, [5]
Conditions	first compound 1.285 µg/mL	first compound 2 µg/mL	first compound 2.57 µg/mL	first compound 4 µg/mL	first compound 8 µg/mL
partner 0.03125 µg/mL	–	0.948	–	0.957	0.951
partner 0.0625 µg/mL	–	0.893	–	0.915	0.859
partner 0.125 µg/mL	0.805	0.767	0.812	0.775	0.771
partner 0.25 µg/mL	0.724	–	0.676	–	–
partner 0.5 µg/mL	0.258	–	0.217	–	–

[5], first compound 5.14 µg/mL, one replicate
Conditions	fitness
partner 0.125 µg/mL	0.791
partner 0.25 µg/mL	0.589
partner 0.5 µg/mL	0.18

C/C(=C\C(=O)OCCCCCCCCC(=O)O)C[C@@H]1OC[C@H](C[C@@H]2O[C@H]2[C@@H](C)[C@H](C)O)[C@@H](O)[C@H]1O [Pseudomonic acid] + CO[C@H]1/C=C/O[C@@]2(C)Oc3c(C)c(O)c4c(O)c(c(/C=N/N5CCN(C)CC5)c(O)c4c3C2=O)NC(=O)/C(C)=C\C=C\[C@H](C)[C@H](O)[C@@H](C)[C@@H](O)[C@@H](C)[C@H](OC(C)=O)[C@@H]1C [Rifampicin]
Conditions	Bliss interaction score
[1]	0.0229
[2]	-0.0134
[3]	0.0416
[4]	0.14

[5], partner 0.025 µg/mL, one replicate
Conditions	fitness
first compound 0.03 µg/mL	0.872
first compound 0.06 µg/mL	0.79
first compound 0.12 µg/mL	0.742

[5], first compound 0.12 µg/mL
Conditions	fitness
partner 0.05 µg/mL	0.608
partner 0.2 µg/mL	0.136
